According to patent publication US10450266B2, “Sulfonate compound, photoacid generator, and resin composition for photolithography” (SAN-APRO LIMITED, priority 2014, dated 2019):

What was measured:
Format in all cases: physicochemical
Solvent solubility = details: for Solvent solubility, PGMEA / Solvent solubility, Butyl acetate / Solvent solubility, Toluene: 25° C.
Protocol: In a test tube, 0.1 g of the synthesized photoacid generator was placed, and an organic solvent (butyl acetate, toluene or PGMEA) was added thereto in 0.2 g portions under a condition where the temperature was adjusted to 25° C. until the photoacid generator was completely dissolved. In this connection, in the case where the photoacid generator was not completely dissolved even when 20 g of the solvent was added, the photoacid generator was evaluated as one that was not dissolved.

[1] = Molar extinction coefficient at i-line (365 nm), UV-visible spectrophotometer; details: 365 nm (i-line), 0.25 mmol/L in acetonitrile, 1 cm cell
Protocol: The synthesized photoacid generator was diluted to 0.25 mmol/L with acetonitrile, and using an ultraviolet-visible spectrophotometer (UV-2550 available from SHIMADZU CORPORATION), the absorbance in a range of 200 nm to 500 nm was measured with a cell having an optical path length (a cell length) of 1 cm. The molar extinction coefficient of i-line (365 nm) (ε365) was calculated from the following equation. ε365(L·mol^−1·cm^−1)=A365/(0.00025 mol/L×1 cm) [In the equation, A365 represents the absorbance at 365 nm.] <Resist Curing Properties>

[2] = Thermal decomposition temperature (TG/DTA, 2% weight reduction); details: point of 2% weight reduction, 10° C./minute, nitrogen atmosphere
Protocol: The synthesized photoacid generator was measured for the change in weight under a temperature increasing condition of 10° C./minute from 30° C. to 500° C. under a nitrogen atmosphere using a thermal gravimetric/differential thermal analyzer (TG/DTA 6200, available from Seiko Instruments Inc.), and a point where the weight was reduced by 2% was defined as the thermal decomposition temperature.

| Solvent solubility, PGMEA (Solvent solubility) [wt %] | Solvent solubility, Butyl acetate (Solvent solubility) [wt %] | Solvent solubility, Toluene (Solvent solubility) [wt %] | Molar extinction coefficient [1] [L/mol/cm] | Thermal decomposition temperature [2] [°C] | solubility to a solvent (in words) (Solvent solubility; summary of Table 1) | Compound |
| --- | --- | --- | --- | --- | --- | --- |
| 20 | 20 | 12 | 80 | 230 | – | CN(OS(=O)(=O)CC12CCC(CC1=O)C2(C)C)C(=O)c1ccc2ccccc2c1 (stereo not shown) [A-1] |
| 15 | 15 | 10 | 120 | 225 | – | COc1ccc2cc(C(=O)N(C)OS(=O)(=O)CC34CCC(CC3=O)C4(C)C)ccc2c1 (stereo not shown) [A-2] |
| 15 | 15 | 10 | 360 | 225 | – | COc1cc2c(OC)cccc2cc1C(=O)N(C)OS(=O)(=O)CC12CCC(CC1=O)C2(C)C (stereo not shown) [A-3] |
| 20 | 20 | 10 | 300 | 225 | – | COc1cc2c(OC)cccc2cc1C(=O)N(C)OS(C)(=O)=O [A-4] |
| 10 | 10 | 10 | 400 | 225 | – | COc1cc2c(OC)cccc2cc1C(=O)N(C)OS(=O)(=O)c1c(F)c(F)c(F)c(F)c1F [A-5] |
| 15 | 15 | 10 | 450 | 210 | – | CC(=O)c1ccc(Sc2ccc(C(=O)N(C)OS(=O)(=O)CC34CCC(CC3=O)C4(C)C)cc2)cc1 (stereo not shown) [A-6] |
| 15 | 15 | 10 | 6500 | 220 | – | COc1ccc2cc(C(=O)N(C)OS(=O)(=O)CC34CCC(CC3=O)C4(C)C)c(=O)oc2c1 (stereo not shown) [A-7] |
| 5 | 5 | 10 | 9000 | 240 | – | CN(OS(=O)(=O)CC12CCC(CC1=O)C2(C)C)C(=O)c1c2ccccc2cc2ccccc12 (stereo not shown) [A-8] |
| 0.5 | 1 | 0.5 | 330 | 225 | insufficient | CC1(C)C2CCC1(CS(=O)(=O)OC1C(=O)c3cccc4cccc(c34)C1=O)C(=O)C2 (stereo not shown) [A′-1, reference compound] |
